Structures can show the parent of a compound that is named as a salt. Where two headings read alike, the source gives them in different places.

Drawing on patent publication US20230011869A1 (Hoffmann-La Roche Inc., priority 2018, published 2023), this text covers IC90 for 19 molecules.

Experiment [1] has as its system Acinetobacter baumannii ATCC17961. As to the kind of experiment: Antimicrobial susceptibility testing: 90% growth inhibitory concentration (IC90) determination, Iso-Sensitest broth. In kind it is cell-based. The note with it: Acinetobacter baumannii, ATCC17961, 16 h, 90% growth inhibitory concentration, Acinetobacter baumannii ATCC17961, Iso-Sensitest broth, OD 600 nm over 16 h; read-out: ATCC17961 IC90. The procedure: Antimicrobial Susceptibility Testing:
90% Growth Inhibitory Concentration (IC90) Determination
The in vitro antimicrobial activity of the compounds was determined according to the following procedure:
The assay used a 10-points Iso-Sensitest broth medium to measure quantitatively the in vitro activity of the compounds against Acinetobacter baumannii ATCC17978 and Acinetobacter baumannii ATCC17961.
Stock compounds in DMSO were serially twofold diluted (e.g. range from 50 to 0.097 μM final concentration) in 384 wells microtiter plates and inoculated with 49 μl the bacterial suspension in Iso-Sensitest medium to have a final cell concentration of 5×10^(5) CFU/ml in a final volume/well of 50 ul/well. Microtiter plates were incubated at 35±2° C.
Bacterial cell growth was determined with the measurement of optical density at λ=600 nm each 20 minutes over a time course of 16 h. Growth inhibition was calculated during the logarithmic growth of the bacterial cells with determination of the concentration inhibiting 50% (IC50) and 90% (IC90) of the growth.
Table 1 provides the 90% growth inhibitory concentrations (IC90) in micromoles per liter of the compounds of present invention obtained against the strain Acinetobacter baumannii ATCC17978 and Acinetobacter baumannii ATCC17961.

In experiment [2] the test system is Acinetobacter baumannii ATCC17978. The experiment is described as above. In kind it is cell-based. A digest of the protocol: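 A. baumannii ATCC17978 grown in Iso-Sensitest broth across 10 compound concentrations at 35±2 °C.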
Setting [3] is: Acinetobacter baumannii, ATCC17978, 16 h, read-out: ATCC17978 IC90, 90% growth inhibitory concentration, Acinetobacter baumannii ATCC17978, Iso-Sensitest broth, OD 600 nm over 16 h.
The mark [4] stands for this setting: 90% growth inhibitory concentration, Acinetobacter baumannii ATCC17978, Iso-Sensitest broth, OD 600 nm over 16 h, read-out: ATCC17978 IC90.

As to `COc1ccc(-c2cnc3c(Nc4ccc(C(=O)N5CCN(C(=O)[C@H]6NC[C@H]7C[C@H]76)CC5)c(C)c4)nccn23)c(F)c1F` (racemic) [Example 82, (4-((1R,2S,5S)-3-azabicyclo[3.1.0]hexane-2-carbonyl)piperazin-1-yl)(4-((3-(2,3-difluoro-4-methoxyphenyl)imidazo[1,2-a]pyrazin-8-yl)amino)-2-methylphenyl)methanone hydrochloride], the IC90 in experiment [1] was 0.098 µM.
For `COc1ccc(-c2cnc3c(Nc4ccc(C(=O)N5CCN(C(=O)[C@@H]6C[C@@H](OC(=O)[C@@H](N)[C@@H](C)O)CN6)CC5)c(C)c4)nccn23)c(F)c1F` [Example 549, [(3R,5S)-5-[4-[4-[[3-(2,3-difluoro-4-methoxy-phenyl)imidazo[1,2-a]pyrazin-8-yl]amino]-2-methyl-benzoyl]piperazine-1-carbonyl]pyrrolidin-3-yl] (2S,3R)-2-amino-3-hydroxy-butanoate formate], the IC90 in experiment [2] (setting [3]) turned out to be 0.075 µM.
On the same count and under the same terms, under `COc1ccc(-c2cnc3c(Nc4ccc(C(=O)N5CCN(C(=O)[C@@H]6C[C@@H](OC(=O)[C@@H](N)CCCNC(=N)N)CN6)CC5)c(C)c4)nccn23)c(F)c1F` [Example 550, [(3R,5S)-5-[4-[4-[[3-(2,3-difluoro-4-methoxy-phenyl)imidazo[1,2-a]pyrazin-8-yl]amino]-2-methyl-benzoyl]piperazine-1-carbonyl]pyrrolidin-3-yl] 2-amino-5-guanidino-pentanoate formate] stands 0.153 µM.
Same read-out and setting: under `COc1ccc(-c2cnc3c(Nc4ccc(C(=O)N5CCN(C(=O)[C@@H]6C[C@@H](OC(=O)[C@@H]7CCCN7)CN6)CC5)c(C)c4)nccn23)c(F)c1F` [Example 551, [(3R,5S)-5-[4-[4-[[3-(2,3-difluoro-4-methoxy-phenyl)imidazo[1,2-a]pyrazin-8-yl]amino]-2-methyl-benzoyl]piperazine-1-carbonyl]pyrrolidin-3-yl] pyrrolidine-2-carboxylate formate] stands 0.196 µM.
Still for that read-out and setting: in the case of `COc1ccc(-c2cnc3c(Nc4ccc(C(=O)N5CCN(C(=O)[C@@H]6C[C@@H](OC(=O)[C@@H](N)C(C)C)CN6)CC5)c(C)c4)nccn23)c(F)c1F` [Example 552, [(3R,5S)-5-[4-[4-[[3-(2,3-difluoro-4-methoxy-phenyl)imidazo[1,2-a]pyrazin-8-yl]amino]-2-methyl-benzoyl]piperazine-1-carbonyl]pyrrolidin-3-yl] (2S)-2-amino-3-methyl-butanoate] it was 0.186 µM.
As for `Cc1cc(Nc2nccn3c(-c4ccc(OC(F)F)cc4)cnc23)ccc1C(=O)N1CCC(C(=O)NC[C@H](O)CN)CC1` [Example 553, (R)-N-(3-amino-2-hydroxypropyl)-1-(4-((3-(4-(difluoromethoxy)phenyl)imidazo [1,2-a]pyrazin-8-yl)amino)-2-methylbenzoyl)piperidine-4-carboxamide formate], the IC90 in experiment [2] (setting [3]) amounted to 0.227 µM.
Still for that read-out and setting: under `Cc1cc(Nc2nccn3c(-c4ccc(OC(F)F)cc4)cnc23)ccc1C(=O)N1CCC(C(=O)NC[C@@H](O)CN)CC1` [Example 554, (S)-N-(3-amino-2-hydroxypropyl)-1-(4-((3-(4-(difluoromethoxy)phenyl)imidazo [1,2-a]pyrazin-8-yl)amino)-2-methylbenzoyl)piperidine-4-carboxamide formate] stands 0.344 µM.
Still for that read-out and setting: in the case of `CCc1cc(Nc2nccn3c(-c4ccc(OC(C)C#N)c(F)c4F)cnc23)ccc1C(=O)N1CCN(CCN(C)C)CC1` (stereo not shown) [Example 557, 2-(4-(8-((4-(4-(2-(dimethylamino)ethyl)piperazine-1-carbonyl)-3-ethylphenyl)amino)imidazo[1,2-a]pyrazin-3-yl)-2,3-difluorophenoxy)propanenitrile] it was 0.694 µM.
For the molecule `COc1ccc(-c2cnc3c(Nc4ccc(C(=O)N5CCC(C(=O)N6CCN[C@@H](C(=O)O)C6)CC5)c(C)c4)nccn23)cc1F` [Example 558, (R)-4-(1-(4-((3-(3-fluoro-4-methoxyphenyl)imidazo[1,2-a]pyrazin-8-yl)amino)-2-methylbenzoyl)piperidine-4-carbonyl)piperazine-2-carboxylic acid hydrochloride], the IC90 in experiment [2] (setting [4]) amounted to 0.922 µM.
In the case of `Cc1cc(Nc2nccn3c(-c4ccc(O[C@H](C)C#N)c(F)c4F)cnc23)ccc1C(=O)N1CCN(C(=O)[C@@H]2C[C@@H](O)CN2)CC1` [Example 559, (2R)-2-[2,3-difluoro-4-[8-[4-[4-[(2S,4R)-4-hydroxypyrrolidine-2-carbonyl]piperazine-1-carbonyl]-3-methyl-anilino]imidazo[1,2-a]pyrazin-3-yl]phenoxy]propanenitrile formate], the IC90 in experiment [2] (setting [3]) was determined as 0.699 µM.
On the same count and under the same terms, in the case of `Cc1cc(Nc2nccn3c(-c4ccc(O[C@H](C)C#N)c(F)c4F)cnc23)ccc1C(=O)N1CCN(C(=O)C2(O)CCNCC2)CC1` [Example 560, (2R)-2-[2,3-difluoro-4-[8-[4-[4-(4-hydroxypiperidine-4-carbonyl)piperazine-1-carbonyl]-3-methyl-anilino]imidazo[1,2-a]pyrazin-3-yl]phenoxy]propanenitrile formate] it was 0.746 µM.
Turning to `COc1ccc(-c2cnc3c(Nc4ccc(C(=O)N5CCN(C(=O)[C@@H]6C[C@@H](OC(=O)[C@@H](N)CCCCN)CN6)CC5)c(C)c4)nccn23)c(F)c1F` [Example 561, [(3R,5S)-5-[4-[4-[[3-(2,3-difluoro-4-methoxy-phenyl)imidazo[1,2-a]pyrazin-8-yl]amino]-2-methyl-benzoyl]piperazine-1-carbonyl]pyrrolidin-3-yl] (2S)-2,6-diaminohexanoate formate], the IC90 in experiment [2] (setting [3]) came out at 0.123 µM.
Still for that read-out and setting: under `COc1ccc(-c2cnc3c(Nc4ccc(C(=O)N5CCN(C(=O)[C@@H]6C[C@@H](OC(=O)CN)CN6)CC5)c(C)c4)nccn23)c(F)c1F` [Example 562, [(3R,5S)-5-[4-[4-[[3-(2,3-difluoro-4-methoxy-phenyl)imidazo[1,2-a]pyrazin-8-yl]amino]-2-methyl-benzoyl]piperazine-1-carbonyl]pyrrolidin-3-yl]2-aminoacetate formate] stands 0.112 µM; under `COc1ccc(-c2cnc3c(Nc4ccc(C(=O)N5CCN(C(=O)[C@@H]6C[C@@H](OC(=O)[C@@H](N)CO)CN6)CC5)c(C)c4)nccn23)c(F)c1F` [Example 563, [(3R,5S)-5-[4-[4-[[3-(2,3-difluoro-4-methoxy-phenyl)imidazo[1,2-a]pyrazin-8-yl]amino]-2-methyl-benzoyl]piperazine-1-carbonyl]pyrrolidin-3-yl] (2S)-2-amino-3-hydroxy-propanoate formate], 0.135 µM.
On the same count and under the same terms, under `CCC(C#N)Oc1ccc(-c2cnc3c(Nc4ccc(C(=O)N5CCC(CN)CC5)c(C)c4)nccn23)c(F)c1F` (stereo not shown) [Example 564, 2-(4-(8-((4-(4-(aminomethyl)piperidine-1-carbonyl)-3-methylphenyl)amino)imidazo [1,2-a]pyrazin-3-yl)-2,3-difluorophenoxy)butanenitrile formate] stands 0.969 µM.
Same read-out and setting: in the case of `COc1ccc(-c2cnc3c(Nc4ccc(C(=O)N5CCN(C(=O)[C@@H]6C[C@@H](OC(=O)[C@@H](N)CCC(N)=O)CN6)CC5)c(C)c4)nccn23)c(F)c1F` [Example 565, [(3R,5S)-5-[4-[4-[[3-(2,3-difluoro-4-methoxy-phenyl)imidazo[1,2-a]pyrazin-8-yl]amino]-2-methyl-benzoyl]piperazine-1-carbonyl]pyrrolidin-3-yl] (2S)-2,5-diamino-5-oxo-pentanoate formate] it was 0.109 µM.
Turning to `COc1ccc(-c2cnc3c(Nc4ccc(C(=O)N5CCC(C(=O)N6C[C@H](O)[C@@H](O)[C@H](O)[C@H]6CO)CC5)c(C)c4)nccn23)c(F)c1F` [Example 566, (1-(4-((3-(2,3-difluoro-4-methoxyphenyl)imidazo[1,2-a]pyrazin-8-yl)amino)-2-methylbenzoyl)piperidin-4-yl)((2R,3R,4R,5S)-3,4,5-trihydroxy-2-(hydroxymethyl)piperidin-1-yl)methanone], in experiment [2] (setting [4]), the IC90 stood at 0.37 µM.
Take `Cc1cc(Nc2nccn3c(-c4ccc(O[C@H](C)C#N)c(F)c4F)cnc23)ccc1C(=O)N1CCN(C(=O)[C@@H]2C[C@](C)(O)CN2)CC1` [Example 567, (2R)-2-[2,3-difluoro-4-[8-[4-[4-[(2S,4S)-4-hydroxy-4-methyl-pyrrolidine-2-carbonyl]piperazine-1-carbonyl]-3-methyl-anilino]imidazo[1,2-a]pyrazin-3-yl]phenoxy]propanenitrile formate]: the IC90 in experiment [2] (setting [3]) was 0.386 µM.
Take `COc1ccc(-c2cnc3c(Nc4ccc(C(=O)N5CCC(C(=O)NCC(O)CN6CCCC6)CC5)c(C)c4)nccn23)cc1F` (stereo not shown) [Example 568, 1-(4-((3-(3-fluoro-4-methoxyphenyl)imidazo[1,2-a]pyrazin-8-yl)amino)-2-methylbenzoyl)-N-(2-hydroxy-3-(pyrrolidin-1-yl)propyl)piperidine-4-carboxamide]: in experiment [2] (setting [4]), the IC90 was 0.229 µM.
